Results from US7880007B2, “Bicyclic substituted phenyl piperidine modulators of muscarinic receptors” (Vertex Pharmaceuticals Incorporated, priority 2004, dated 2011).

Key:
Format in all cases: cell-based
[1] = target: T1, M2 muscarinic receptor (Homo sapiens, UniProt P08172); test: Functional mobilization of intracellular calcium (FLIPR), M2-CHO cells; conditions: for M2 Activity: M2-CHO cells, calcium mobilization (FLIPR)
T1 construct: expressed in transfected cells; host or cells: CHO (M2-CHO)
T1 sequence (P08172 1-466): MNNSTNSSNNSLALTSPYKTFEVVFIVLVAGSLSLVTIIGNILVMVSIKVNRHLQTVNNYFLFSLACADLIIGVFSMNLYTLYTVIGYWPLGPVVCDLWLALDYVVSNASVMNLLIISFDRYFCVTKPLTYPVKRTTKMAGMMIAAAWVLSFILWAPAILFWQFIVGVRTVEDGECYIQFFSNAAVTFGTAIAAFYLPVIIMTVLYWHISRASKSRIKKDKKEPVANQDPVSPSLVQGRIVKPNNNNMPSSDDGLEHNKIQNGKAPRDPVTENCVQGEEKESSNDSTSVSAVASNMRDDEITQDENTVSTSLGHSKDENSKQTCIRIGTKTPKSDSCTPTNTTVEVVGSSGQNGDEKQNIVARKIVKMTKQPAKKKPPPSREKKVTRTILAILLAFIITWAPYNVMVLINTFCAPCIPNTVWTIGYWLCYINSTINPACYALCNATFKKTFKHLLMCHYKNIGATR
Method in brief: (§1)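 CHO cells expressing human M1–M4 receptors loaded with Fluo-3 AM or Calcium 3 dye (1 mM probenecid, pH 7.4); 0.5% DMSO final. Agonist mode: compound added directly; antagonist mode: 15 min pre-incubation or co-application, then carbachol at EC80. Fluorescence read 60 s on FLIPR; efficacy relative to carbachol maximum.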

[2] = target: T2, M3 muscarinic receptor (Homo sapiens, UniProt P20309); test: Functional mobilization of intracellular calcium (FLIPR), M3-CHO cells; conditions: for M3 Activity: M3-CHO cells, calcium mobilization (FLIPR)
T2 construct: expressed in transfected cells; host or cells: CHO (M3-CHO)
Method in brief: as §1

[3] = target: T3, M4 muscarinic receptor (Homo sapiens, UniProt P08173); test: Functional mobilization of intracellular calcium (FLIPR), M4-CHO cells; conditions: for M4 Activity: M4-CHO cells, calcium mobilization (FLIPR)
T3 construct: expressed in transfected cells; host or cells: CHO (M4-CHO)
T3 sequence (P08173 1-479): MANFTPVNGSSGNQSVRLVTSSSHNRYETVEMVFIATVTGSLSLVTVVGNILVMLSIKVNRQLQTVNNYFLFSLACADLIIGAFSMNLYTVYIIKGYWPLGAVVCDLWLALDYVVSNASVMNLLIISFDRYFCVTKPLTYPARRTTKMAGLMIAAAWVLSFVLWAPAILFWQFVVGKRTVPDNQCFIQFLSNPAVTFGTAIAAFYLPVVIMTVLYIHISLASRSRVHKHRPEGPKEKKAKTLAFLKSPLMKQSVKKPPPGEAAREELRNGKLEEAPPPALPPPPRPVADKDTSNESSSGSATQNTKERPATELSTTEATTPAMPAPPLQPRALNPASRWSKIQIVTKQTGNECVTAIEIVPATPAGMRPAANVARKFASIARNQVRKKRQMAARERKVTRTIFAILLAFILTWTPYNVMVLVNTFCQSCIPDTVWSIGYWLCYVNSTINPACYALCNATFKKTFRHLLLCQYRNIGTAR
Method in brief: as §1

[4] = target: T4, M1 muscarinic receptor (Homo sapiens, UniProt P11229); test: Functional mobilization of intracellular calcium (FLIPR), M1-CHO cells; conditions: for M1 Activity: M1-CHO cells, calcium mobilization (FLIPR)
T4 construct: expressed in transfected cells; host or cells: CHO (M1-CHO)
T4 sequence (P11229 1-460): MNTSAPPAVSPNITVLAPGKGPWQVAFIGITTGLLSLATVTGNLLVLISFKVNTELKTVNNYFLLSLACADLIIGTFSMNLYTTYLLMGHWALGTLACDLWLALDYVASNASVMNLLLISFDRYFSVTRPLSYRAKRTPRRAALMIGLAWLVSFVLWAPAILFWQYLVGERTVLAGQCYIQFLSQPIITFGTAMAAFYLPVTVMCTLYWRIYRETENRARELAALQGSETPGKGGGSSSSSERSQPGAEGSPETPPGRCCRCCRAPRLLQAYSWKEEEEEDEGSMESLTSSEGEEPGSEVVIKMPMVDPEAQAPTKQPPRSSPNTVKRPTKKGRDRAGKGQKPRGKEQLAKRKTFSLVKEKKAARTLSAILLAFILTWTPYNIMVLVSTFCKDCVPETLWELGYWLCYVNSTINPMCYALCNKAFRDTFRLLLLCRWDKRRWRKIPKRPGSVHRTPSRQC
Method in brief: as §1

[5] = 100% efficacy = maximum response obtained with the Carbachol control

T2 sequence (P20309 whole entry): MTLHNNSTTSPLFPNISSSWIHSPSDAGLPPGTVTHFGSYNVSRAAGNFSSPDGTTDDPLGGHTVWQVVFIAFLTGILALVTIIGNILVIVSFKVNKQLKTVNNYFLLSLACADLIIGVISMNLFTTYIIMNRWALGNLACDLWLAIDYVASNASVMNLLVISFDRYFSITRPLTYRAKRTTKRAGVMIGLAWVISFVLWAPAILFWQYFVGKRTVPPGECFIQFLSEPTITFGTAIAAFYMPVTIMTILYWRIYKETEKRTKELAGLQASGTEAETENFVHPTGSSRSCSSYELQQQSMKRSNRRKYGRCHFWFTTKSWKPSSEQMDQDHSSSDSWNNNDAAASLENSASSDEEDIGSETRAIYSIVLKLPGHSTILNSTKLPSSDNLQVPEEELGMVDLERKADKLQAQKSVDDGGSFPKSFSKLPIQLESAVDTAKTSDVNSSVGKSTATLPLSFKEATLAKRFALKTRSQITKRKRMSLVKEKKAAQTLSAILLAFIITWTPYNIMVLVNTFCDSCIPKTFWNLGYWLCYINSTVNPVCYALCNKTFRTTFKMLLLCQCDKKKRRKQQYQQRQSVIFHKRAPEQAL

## COc1ccccc1C1CCN([C@@H]2C[C@H]3CC[C@H]2C3)CC1 [Compound 85]
[1]; [5]
  Emax: < 25%
[1]
  M2 Activity: + (activity was measured to be greater than 5.0 μM)
[2]; [5]
  Emax: < 25%
[2]
  M3 Activity: + (activity was measured to be greater than 5.0 μM)
[3]; [5]
  Emax: 25 to 100%
[3]
  M4 Activity: +++ (activity was measured to be less than 1.0 μM)
[4]; [5]
  Emax: 25 to 100%
[4]
  M1 Activity: + (activity was measured to be greater than 5.0 μM)

## Cc1ccccc1C1CCN(C2CC3CCC(C3)C2)CC1 (stereo not shown) [Compound 86]
[1]; [5]
  Emax: < 25%
[1]
  M2 Activity: + (activity was measured to be greater than 5.0 μM)
[2]; [5]
  Emax: < 25%
[2]
  M3 Activity: + (activity was measured to be greater than 5.0 μM)
[3]; [5]
  Emax: 25 to 100%
[3]
  M4 Activity: +++ (activity was measured to be less than 1.0 μM)
[4]; [5]
  Emax: 25 to 100%
[4]
  M1 Activity: ++ (activity was measured to be from 1.0 μM to 5.0 μM)

## COCCNC(=O)c1ccc(-c2ccc(OC)c(C3CCN([C@H]4C[C@H]5CC[C@H]4C5)CC3)c2)cc1 [Compound 87]
[1]; [5]
  Emax: < 25%
[1]
  M2 Activity: + (activity was measured to be greater than 5.0 μM)
[2]; [5]
  Emax: < 25%
[2]
  M3 Activity: + (activity was measured to be greater than 5.0 μM)
[3]; [5]
  Emax: < 25%
[3]
  M4 Activity: + (activity was measured to be greater than 5.0 μM)
[4]; [5]
  Emax: < 25%
[4]
  M1 Activity: + (activity was measured to be greater than 5.0 μM)

## Clc1ccccc1-c1ccccc1C1CCN([C@H]2C[C@H]3CC[C@H]2C3)CC1 [Compound 88]
[1]; [5]
  Emax: < 25%
[1]
  M2 Activity: + (activity was measured to be greater than 5.0 μM)
[2]; [5]
  Emax: < 25%
[2]
  M3 Activity: + (activity was measured to be greater than 5.0 μM)
[3]; [5]
  Emax: 25 to 100%
[3]
  M4 Activity: ++ (activity was measured to be from 1.0 μM to 5.0 μM)
[4]; [5]
  Emax: < 25%
[4]
  M1 Activity: + (activity was measured to be greater than 5.0 μM)

## COc1ccccc1C1CCN(C2CCOCC2)CC1 [Compound 90]
[1]; [5]
  Emax: < 25%
[1]
  M2 Activity: + (activity was measured to be greater than 5.0 μM)
[2]; [5]
  Emax: < 25%
[2]
  M3 Activity: + (activity was measured to be greater than 5.0 μM)
[3]; [5]
  Emax: 25 to 100%
[3]
  M4 Activity: +++ (activity was measured to be less than 1.0 μM)
[4]; [5]
  Emax: 25 to 100%
[4]
  M1 Activity: + (activity was measured to be greater than 5.0 μM)

## COc1ccc(-c2ccccc2C#N)cc1C1CCN([C@@H]2C[C@H]3CC[C@H]2C3)CC1 [Compound 92]
[1]; [5]
  Emax: < 25%
[1]
  M2 Activity: + (activity was measured to be greater than 5.0 μM)
[2]; [5]
  Emax: < 25%
[2]
  M3 Activity: + (activity was measured to be greater than 5.0 μM)
[3]; [5]
  Emax: < 25%
[3]
  M4 Activity: + (activity was measured to be greater than 5.0 μM)
[4]; [5]
  Emax: < 25%
[4]
  M1 Activity: + (activity was measured to be greater than 5.0 μM)

## Cc1ccccc1C1CCN([C@H]2C[C@H]3CC[C@H]2C3)CC1 [Compound 93]
[1]; [5]
  M2 Efficacy: + (efficacy was calculated to be less than 25%)
[1]
  M2 Activity: + (activity was measured to be greater than 5.0 μM)
[2]; [5]
  M3 Efficacy: + (efficacy was calculated to be less than 25%)
[2]
  M3 Activity: + (activity was measured to be greater than 5.0 μM)
[3]; [5]
  M4 Efficacy: ++ (efficacy was calculated to be from 100% to 25%)
[3]
  M4 Activity: +++ (activity was measured to be less than 1.0 μM)
[4]; [5]
  M1 Efficacy: ++ (efficacy was calculated to be from 100% to 25%)
[4]
  M1 Activity: ++ (activity was measured to be from 1.0 μM to 5.0 μM)

## CCOC(=O)N1CCC(CN2CCC(c3cc(C(F)(F)F)ccc3C)CC2)CC1 [Compound 94]
[1]; [5]
  Emax: 25 to 100%
[1]
  M2 Activity: +++ (activity was measured to be less than 1.0 μM)
[2]; [5]
  Emax: < 25%
[2]
  M3 Activity: ++ (activity was measured to be from 1.0 μM to 5.0 μM)
[3]; [5]
  Emax: 25 to 100%
[3]
  M4 Activity: +++ (activity was measured to be less than 1.0 μM)
[4]; [5]
  Emax: 25 to 100%
[4]
  M1 Activity: +++ (activity was measured to be less than 1.0 μM)

## COc1ccc(-c2cccc(C#N)c2)cc1C1CCN([C@H]2C[C@H]3CC[C@H]2C3)CC1 [Compound 97]
[1]; [5]
  Emax: < 25%
[1]
  M2 Activity: + (activity was measured to be greater than 5.0 μM)
[2]; [5]
  Emax: < 25%
[2]
  M3 Activity: + (activity was measured to be greater than 5.0 μM)
[3]; [5]
  Emax: 25 to 100%
[3]
  M4 Activity: + (activity was measured to be greater than 5.0 μM)
[4]; [5]
  Emax: < 25%
[4]
  M1 Activity: + (activity was measured to be greater than 5.0 μM)

## CCN(CC)C(=O)c1ccc(-c2ccc(OC)c(C3CCN([C@H]4C[C@H]5CC[C@H]4C5)CC3)c2)cc1 [Compound 98]
[1]; [5]
  Emax: < 25%
[1]
  M2 Activity: + (activity was measured to be greater than 5.0 μM)
[2]; [5]
  Emax: < 25%
[2]
  M3 Activity: + (activity was measured to be greater than 5.0 μM)
[3]; [5]
  Emax: < 25%
[3]
  M4 Activity: ++ (activity was measured to be from 1.0 μM to 5.0 μM)
[4]; [5]
  Emax: < 25%
[4]
  M1 Activity: + (activity was measured to be greater than 5.0 μM)

## CNC(=O)c1ccc(-c2ccc(OC)c(C3CCN(C4CC5CCC(C5)C4)CC3)c2)cc1Cl (stereo not shown) [Compound 100]
[1]; [5]
  Emax: < 25%
[1]
  M2 Activity: + (activity was measured to be greater than 5.0 μM)
[2]; [5]
  Emax: < 25%
[2]
  M3 Activity: + (activity was measured to be greater than 5.0 μM)
[3]; [5]
  Emax: 25 to 100%
[3]
  M4 Activity: ++ (activity was measured to be from 1.0 μM to 5.0 μM)
[4]; [5]
  Emax: < 25%
[4]
  M1 Activity: + (activity was measured to be greater than 5.0 μM)

## COc1ccc(-c2ccc(S(C)(=O)=O)cc2)cc1C1CCN([C@H]2C[C@H]3CC[C@H]2C3)CC1 [Compound 102]
[1]; [5]
  Emax: < 25%
[1]
  M2 Activity: + (activity was measured to be greater than 5.0 μM)
[2]; [5]
  Emax: < 25%
[2]
  M3 Activity: + (activity was measured to be greater than 5.0 μM)
[3]; [5]
  Emax: 25 to 100%
[3]
  M4 Activity: ++ (activity was measured to be from 1.0 μM to 5.0 μM)
[4]; [5]
  Emax: < 25%
[4]
  M1 Activity: + (activity was measured to be greater than 5.0 μM)

## COc1c(F)cc(F)cc1C1CCN([C@@H]2C[C@H]3CC[C@H]2C3)CC1 [Compound 103]
[1]; [5]
  Emax: < 25%
[1]
  M2 Activity: + (activity was measured to be greater than 5.0 μM)
[2]; [5]
  Emax: < 25%
[2]
  M3 Activity: + (activity was measured to be greater than 5.0 μM)
[3]; [5]
  Emax: < 25%
[3]
  M4 Activity: ++ (activity was measured to be from 1.0 μM to 5.0 μM)
[4]; [5]
  Emax: < 25%
[4]
  M1 Activity: + (activity was measured to be greater than 5.0 μM)

## COc1ccc(F)cc1C1CCN(CC2CC3CCC2CC3)CC1 (stereo not shown) [Compound 104]
[1]; [5]
  Emax: < 25%
[1]
  M2 Activity: + (activity was measured to be greater than 5.0 μM)
[2]; [5]
  Emax: < 25%
[2]
  M3 Activity: + (activity was measured to be greater than 5.0 μM)
[3]; [5]
  Emax: 25 to 100%
[3]
  M4 Activity: ++ (activity was measured to be from 1.0 μM to 5.0 μM)
[4]; [5]
  Emax: < 25%
[4]
  M1 Activity: + (activity was measured to be greater than 5.0 μM)
